Measurements as given in patent US12492223B2, “Peptide compositions capable of binding lanthionine synthetase C-like protein (LanCl) and uses thereof” (priority 2021, dated 2025).
Where two headings read alike, the source gives them in different places.

System: HKx31 (H3N2)
Assay type: in vivo, mice
Parameters: key to PMN activity score / Viral titre activity score / BAL IL-6 activity score: 0: inactive; 1: less active than the peptide of SEQ ID NO:38; 2: comparable or more active than the peptide of SEQ ID NO:38
Details: for IL-6 levels in the BAL fluid / viral titres: 10 mg/kg single dose
[1] = PMN infiltrate in BAL fluid, […], relative to SEQ ID NO:38, 10 mg/kg
[2] = single 10 mg/kg dose, day 3, relative to SEQ ID NO:38

Substance: 23 (RPVESS) [compound 23]
- IL-6 levels in the BAL fluid: as effective
- viral titres (day 3): effective
- BAL IL-6 activity score (mouse, in vivo, 10 mg/kg): 1
- PMN activity score (mouse, in vivo, 10 mg/kg): 1
- Viral titre activity score (mouse, in vivo, 10 mg/kg): 2
- reducing the PMN infiltrate in BAL fluid, compared with the peptide of SEQ ID NO:38 (single 10 mg/kg dose): relatively less effective

Substance: 29 (RIIHNN) [compound 29]
- IL-6 levels in the BAL fluid: as effective
- viral titres (day 3): effective
- BAL IL-6 activity score (mouse, in vivo, 10 mg/kg): 2
- PMN activity score (mouse, in vivo, 10 mg/kg): 2
- Viral titre activity score (mouse, in vivo, 10 mg/kg): 2
- reducing the PMN infiltrate in BAL fluid, compared with the peptide of SEQ ID NO:38 (single 10 mg/kg dose): as effective

Substance: 41 (RALNSS; SITE 1 Arg 1 is bonded to Ser 6; SITE 6 Ser 6 is bonded to Arg 1) [compound 41]
- PMN activity score (mouse, in vivo, 10 mg/kg): 1
- reducing the PMN infiltrate in BAL fluid, compared with the peptide of SEQ ID NO:38 (single 10 mg/kg dose): relatively less effective

Substance: 43 (RALRTK) [compound 43]
- reducing the PMN infiltrate in BAL fluid, compared with the peptide of SEQ ID NO:38 (single 10 mg/kg dose): did not show any changes

Substance: 44 (HIVESS) [compound 44]
- IL-6 levels in the BAL fluid: as effective
- PMN activity score [1]: 0
- BAL IL-6 activity score (mouse, in vivo, 10 mg/kg): 2
- Viral titre activity score (mouse, in vivo, 10 mg/kg): 1
- reducing the PMN infiltrate in BAL fluid, compared with the peptide of SEQ ID NO:38 (single 10 mg/kg dose): did not show any changes

Substance: 47 (RAVESS) [compound 47]
- IL-6 levels in the BAL fluid: as effective
- PMN activity score [1]: 0
- BAL IL-6 activity score (mouse, in vivo, 10 mg/kg): 2
- Viral titre activity score (mouse, in vivo, 10 mg/kg): 1

Substance: 49 (RALNST) [compound 49]
- IL-6 levels in the BAL fluid: as effective
- PMN activity score [1]: 0
- BAL IL-6 activity score (mouse, in vivo, 10 mg/kg): 2
- Viral titre activity score [2]: 0

Substance: 50 (RALQSS) [compound 50]
- IL-6 levels in the BAL fluid: as effective
- viral titres (day 3): effective
- BAL IL-6 activity score (mouse, in vivo, 10 mg/kg): 2
- PMN activity score (mouse, in vivo, 10 mg/kg): 1
- Viral titre activity score (mouse, in vivo, 10 mg/kg): 2
- reducing the PMN infiltrate in BAL fluid, compared with the peptide of SEQ ID NO:38 (single 10 mg/kg dose): relatively less effective

Substance: 52 (PALNTS) [compound 52]
- IL-6 levels in the BAL fluid: as effective
- viral titres (day 3): effective
- PMN activity score [1]: 0
- BAL IL-6 activity score (mouse, in vivo, 10 mg/kg): 2
- Viral titre activity score (mouse, in vivo, 10 mg/kg): 2
- reducing the PMN infiltrate in BAL fluid, compared with the peptide of SEQ ID NO:38 (single 10 mg/kg dose): did not show any changes

Substance: 56 (RSVEG) [compound 56]
- IL-6 levels in the BAL fluid: as effective
- viral titres (day 3): effective
- BAL IL-6 activity score (mouse, in vivo, 10 mg/kg): 2
- PMN activity score (mouse, in vivo, 10 mg/kg): 2
- Viral titre activity score (mouse, in vivo, 10 mg/kg): 2
- reducing the PMN infiltrate in BAL fluid, compared with the peptide of SEQ ID NO:38 (single 10 mg/kg dose): as effective

Substance: 57 (RSVE) [compound 57]
- BAL IL-6 activity score (IL-6 in BAL fluid, single 10 mg/kg dose, relative to SEQ ID NO:38): 0
- PMN activity score (mouse, in vivo, 10 mg/kg): 1
- reducing the PMN infiltrate in BAL fluid, compared with the peptide of SEQ ID NO:38 (single 10 mg/kg dose): relatively less effective
- Viral titre activity score [2]: 0
